Test results: ChEMBL document CHEMBL1201862, “PubChem BioAssay data set” (2004)
The source made the active and inactive calls.

Assays:
[1] = target: Acyl-homoserine lactone acylase PvdQ (Pseudomonas aeruginosa (strain LESB58), UniProt Q9I194); assay: PvdQ acylase enzyme activity blockers – biochemical, fluorescence, plate reader and imaging, cherry-picks, dose response (AID 493231)
[2] = target: Glyceraldehyde-3-phosphate dehydrogenase (Homo sapiens, UniProt P04406)
[3] = target: Heat shock 70 kDa protein 1A (Homo sapiens, UniProt P0DMV8); assay: inhibition of Hsp70 binding activity – biochemical, fluorescence polarization, SAR follow-up (AID 1072)
Sequence of Heat shock 70 kDa protein 1A (P0DMV8 whole entry): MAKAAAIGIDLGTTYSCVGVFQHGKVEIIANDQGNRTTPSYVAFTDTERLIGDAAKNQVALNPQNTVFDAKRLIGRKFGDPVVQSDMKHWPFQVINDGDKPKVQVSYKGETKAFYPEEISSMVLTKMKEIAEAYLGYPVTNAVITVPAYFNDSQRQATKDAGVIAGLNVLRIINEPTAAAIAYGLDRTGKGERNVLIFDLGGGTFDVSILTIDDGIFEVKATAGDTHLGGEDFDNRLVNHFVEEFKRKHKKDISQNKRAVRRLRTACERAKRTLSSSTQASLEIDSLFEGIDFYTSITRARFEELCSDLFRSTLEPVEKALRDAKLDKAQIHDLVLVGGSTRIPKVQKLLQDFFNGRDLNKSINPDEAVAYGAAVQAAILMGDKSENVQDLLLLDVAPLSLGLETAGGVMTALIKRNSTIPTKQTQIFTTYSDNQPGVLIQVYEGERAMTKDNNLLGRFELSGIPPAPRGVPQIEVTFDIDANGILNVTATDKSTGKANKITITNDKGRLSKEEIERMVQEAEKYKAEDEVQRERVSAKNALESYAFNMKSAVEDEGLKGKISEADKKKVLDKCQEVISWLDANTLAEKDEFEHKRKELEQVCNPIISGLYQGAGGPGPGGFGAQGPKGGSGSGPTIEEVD

[4] = target: T1, Tyrosine-protein phosphatase non-receptor type 7 (Homo sapiens, UniProt P35236); assay type: functional
T1 sequence (P35236 whole entry): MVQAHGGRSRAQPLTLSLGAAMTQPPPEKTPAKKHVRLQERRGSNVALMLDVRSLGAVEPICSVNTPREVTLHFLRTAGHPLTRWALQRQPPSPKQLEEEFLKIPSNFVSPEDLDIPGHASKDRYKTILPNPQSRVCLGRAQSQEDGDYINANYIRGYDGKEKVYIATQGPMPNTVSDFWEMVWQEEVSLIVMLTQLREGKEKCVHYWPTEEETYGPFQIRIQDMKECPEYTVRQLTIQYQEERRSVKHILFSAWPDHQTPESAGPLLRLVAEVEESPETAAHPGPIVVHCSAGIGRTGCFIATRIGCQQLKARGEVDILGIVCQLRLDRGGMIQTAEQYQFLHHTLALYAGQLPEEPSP

[5] = target: T2, Dual specificity protein phosphatase 6 (Rattus norvegicus, UniProt Q64346)
T2 sequence (Q64346 whole entry): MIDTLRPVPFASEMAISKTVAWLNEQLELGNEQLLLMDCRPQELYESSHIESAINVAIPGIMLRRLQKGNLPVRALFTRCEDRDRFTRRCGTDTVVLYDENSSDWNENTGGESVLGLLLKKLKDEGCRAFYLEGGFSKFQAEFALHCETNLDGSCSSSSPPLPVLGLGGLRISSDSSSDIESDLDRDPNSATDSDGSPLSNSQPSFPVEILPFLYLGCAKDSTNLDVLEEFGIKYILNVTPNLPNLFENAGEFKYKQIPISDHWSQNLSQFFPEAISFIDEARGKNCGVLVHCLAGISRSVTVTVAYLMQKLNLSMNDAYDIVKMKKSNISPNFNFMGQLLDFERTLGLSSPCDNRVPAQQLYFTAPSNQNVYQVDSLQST

[6] = target: Heat shock cognate 71 kDa protein (Homo sapiens, UniProt P11142); assay: In Vitro Hsc70 Dose Response Fluorescence Polarization Assay. [Related pubchem assays: 1072 ]
Sequence of Heat shock cognate 71 kDa protein (P11142 whole entry): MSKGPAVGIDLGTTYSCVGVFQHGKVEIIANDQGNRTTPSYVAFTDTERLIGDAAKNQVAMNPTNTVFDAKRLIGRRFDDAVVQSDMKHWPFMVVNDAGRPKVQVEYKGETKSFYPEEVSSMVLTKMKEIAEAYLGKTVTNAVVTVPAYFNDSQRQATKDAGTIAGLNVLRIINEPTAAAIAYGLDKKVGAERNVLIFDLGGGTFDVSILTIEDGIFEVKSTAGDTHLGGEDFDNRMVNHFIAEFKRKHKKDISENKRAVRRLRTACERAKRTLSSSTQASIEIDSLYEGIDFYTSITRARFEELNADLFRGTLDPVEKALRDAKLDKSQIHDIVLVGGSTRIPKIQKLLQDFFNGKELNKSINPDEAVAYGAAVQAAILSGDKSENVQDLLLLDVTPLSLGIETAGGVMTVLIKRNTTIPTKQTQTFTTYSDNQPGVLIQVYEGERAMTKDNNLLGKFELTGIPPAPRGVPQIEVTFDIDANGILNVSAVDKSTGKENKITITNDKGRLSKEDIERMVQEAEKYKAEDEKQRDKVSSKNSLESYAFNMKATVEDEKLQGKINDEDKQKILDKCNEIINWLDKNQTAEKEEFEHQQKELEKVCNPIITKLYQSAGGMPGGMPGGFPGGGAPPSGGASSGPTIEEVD

[7] = target: T2, Dual specificity protein phosphatase 6; assay type: functional
A-375 [8] = assay: proliferation inhibition in MITF-low A375 cells – cell-based, cherry-pick samples, set 2, counter-screen for MITF modulator project, dose response (AID 540335); assay type: functional; conditions: Homo sapiens
[9] = HEK-293T viability loss after treatment – luminescence, T-cell screen hits, cytotoxicity control for TCR NF-kB inhibitor project, dose response (AID 489026); assay type: functional, cell-based;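 note: cells exposed to compound about 14 hours before the viability readout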
[10] = alpha-synuclein stem-loop translation blockers – luminescence, H4 neuroglioblastoma cells, dose confirmation, confirmation (AID 2454); assay type: functional, cell-based;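 note: H4 neuroglioblastoma cells carrying an alpha-synuclein 5'UTR luciferase reporter; potency for inhibition of the luciferase signal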
[11] = alpha-synuclein stem-loop luciferase translation blockers – H4 neuroglioma cells, luminescence, confirmation (AID 1988); assay type: functional, cell-based
HEK293 [12] = assay: TNF Induced NF-kB Luciferase in 293-NF-kB-Luc Stable Cells. [Related pubchem assays: 1266, 1299, 1269, 1373, 1292, 1290, 1302, 1371, 1283, 1270, 1295, 1271, 1375, 1294, 1374, 1281, 1293, 1291, 1289, 1280, 465, 1368, 1364, 1282, 1372, 1365, 1369, 1370, 1367, 1366 ]; assay type: functional, cell-based; conditions: Homo sapiens
BJ = assay: cells; assay type: functional, cell-based; conditions: Homo sapiens
cells = assay type: functional, cell-based
HEK293 [13] = assay: Cytotoxicity assay in HEK293 cells. [Related pubchem assays (depositor defined):AID1266, AID1269, AID1270, AID1271, AID1280, AID1281, AID1282, AID1283, AID1287, AID1289, AID1290, AID1291, AID1292, AID1293, AID1294, AID1295, AID1299, AID1302, AID1364, AID1365, AID1366, AID1367, AID1369, AID1370, AID1371, AID1372, AID1373, AID1374, AID1375, AID1384 …; assay type: functional, cell-based; conditions: Homo sapiens
[14] = luciferase reporter signal reduction – luminescence, H4-C neuroglioblastoma cells, dose response (AID 2458); assay type: functional, cell-based;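 note: H4 neuroglioblastoma cells stably carrying a luciferase reporter gene fusion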
[15] = target: T3, Microphthalmia-associated transcription factor (Homo sapiens, UniProt O75030); assay: reducers of TRPM1 reporter luminescence, concentration series – cell-based, SK-MEL-5, cherry-picked, set 3, MITF inhibitor project, dose response (AID 493073); assay type: functional;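 note: SK-MEL-5 melanoma cells with luciferase driven by the MITF target TRPM1 promoter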
T3 sequence (O75030 whole entry): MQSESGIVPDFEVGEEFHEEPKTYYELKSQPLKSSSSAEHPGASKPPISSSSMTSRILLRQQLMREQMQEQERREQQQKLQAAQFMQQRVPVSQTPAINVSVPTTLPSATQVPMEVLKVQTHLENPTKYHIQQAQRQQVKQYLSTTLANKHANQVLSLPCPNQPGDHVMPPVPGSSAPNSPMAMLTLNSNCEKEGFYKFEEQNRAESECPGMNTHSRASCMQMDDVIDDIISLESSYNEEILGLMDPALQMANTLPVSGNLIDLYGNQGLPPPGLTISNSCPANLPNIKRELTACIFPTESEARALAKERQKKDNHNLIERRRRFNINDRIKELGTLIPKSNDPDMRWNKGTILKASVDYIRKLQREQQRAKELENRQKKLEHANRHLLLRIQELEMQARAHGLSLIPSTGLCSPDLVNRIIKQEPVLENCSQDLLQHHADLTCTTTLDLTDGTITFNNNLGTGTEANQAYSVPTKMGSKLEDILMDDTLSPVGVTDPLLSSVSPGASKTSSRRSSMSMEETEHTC

A-375 [16] = assay: MITF: Counter assay: A375 proliferation Measured in Cell-Based System Using Plate Reader - 2084-03_Inhibitor_Dose_DryPowder_Activity. [Related pubchem assays (depositor defined):AID488944]; assay type: functional; conditions: Homo sapiens
[17] = luciferase reporter signal suppression in cells – H4 neuroglioma cells, luminescence, dose response (AID 1990); assay type: functional, cell-based
[18] = target: Luciferin 4-monooxygenase (Photinus pyralis, UniProt P08659); assay: In vitro luciferase assay using purified luciferase. [Related pubchem assays: 1299, 1270, 1295, 1375, 1287, 1281, 1293, 1291, 1289, 1280, 465, 1364, 1282, 1372, 1365, 1370, 1367, 1366, 1266, 1373, 1292, 1290, 1302, 1371, 1283, 1271, 1294, 1374, 1368, 1369 ]
Sequence of Luciferin 4-monooxygenase (P08659 whole entry): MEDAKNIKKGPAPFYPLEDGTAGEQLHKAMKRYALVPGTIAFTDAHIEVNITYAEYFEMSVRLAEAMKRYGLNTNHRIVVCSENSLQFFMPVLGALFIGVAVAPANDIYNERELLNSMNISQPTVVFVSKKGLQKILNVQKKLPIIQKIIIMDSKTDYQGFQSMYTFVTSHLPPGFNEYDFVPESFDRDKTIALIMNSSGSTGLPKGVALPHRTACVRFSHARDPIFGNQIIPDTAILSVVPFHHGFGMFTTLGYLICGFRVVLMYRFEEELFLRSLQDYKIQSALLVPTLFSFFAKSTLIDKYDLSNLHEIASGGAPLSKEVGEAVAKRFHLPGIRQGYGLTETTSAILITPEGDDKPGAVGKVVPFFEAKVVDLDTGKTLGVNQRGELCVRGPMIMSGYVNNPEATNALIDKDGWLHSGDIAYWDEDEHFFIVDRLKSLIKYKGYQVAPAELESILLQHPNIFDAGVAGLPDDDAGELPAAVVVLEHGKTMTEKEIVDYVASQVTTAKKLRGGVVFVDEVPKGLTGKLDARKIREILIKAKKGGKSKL

HEK293 [19] = assay: PMA/Ionomycin induced NF-kB luciferase assay in 293- NF-kB-Luc stable cells. [Related pubchem assays: 1299, 1270, 1295, 1375, 1287, 1281, 1293, 1291, 1289, 1280, 465, 1364, 1282, 1372, 1365, 1370, 1367, 1366, 1269, 1373, 1292, 1290, 1302, 1371, 1283, 1271, 1294, 1374, 1368, 1369 ]; assay type: functional, cell-based; conditions: Homo sapiens
HEK293 [20] = assay: PMA/Ionomycin-induced IL-8 production in HEK293- NF-kB-Luc stable cells. [Related pubchem assays: 1299, 1295, 1375, 1287, 1281, 1293, 1291, 1289, 1280, 465, 1364, 1282, 1372, 1365, 1367, 1366, 1266, 1269, 1373, 1292, 1290, 1302, 1371, 1283, 1271, 1294, 1374, 1368, 1369 ]; assay type: functional, cell-based; conditions: Homo sapiens
Cytochrome P450 2C9 = Cytochrome P450 2C9 (Homo sapiens, UniProt P11712); conditions: Potency
Sequence of Cytochrome P450 2C9 (P11712 whole entry): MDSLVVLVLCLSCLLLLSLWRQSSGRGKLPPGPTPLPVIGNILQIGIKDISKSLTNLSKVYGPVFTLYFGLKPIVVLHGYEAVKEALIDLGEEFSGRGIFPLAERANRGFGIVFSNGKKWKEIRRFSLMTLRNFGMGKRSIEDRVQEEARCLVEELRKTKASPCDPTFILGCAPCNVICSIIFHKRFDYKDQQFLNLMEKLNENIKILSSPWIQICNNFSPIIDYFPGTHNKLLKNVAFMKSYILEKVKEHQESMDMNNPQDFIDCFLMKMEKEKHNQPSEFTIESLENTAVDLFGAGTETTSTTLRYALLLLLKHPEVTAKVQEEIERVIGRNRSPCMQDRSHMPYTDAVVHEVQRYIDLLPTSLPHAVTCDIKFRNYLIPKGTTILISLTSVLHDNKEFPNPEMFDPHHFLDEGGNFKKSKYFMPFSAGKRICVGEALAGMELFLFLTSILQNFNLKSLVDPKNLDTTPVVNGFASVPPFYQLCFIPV

Cytochrome P450 2D6 = Cytochrome P450 2D6 (Homo sapiens, UniProt P10635); assay: qHTS Assay for Inhibitors and Substrates of Cytochrome P450 2D6. [Related pubchem assays: 410 ]; assay type: ADME; conditions: read-out: Potency
Sequence of Cytochrome P450 2D6 (P10635 whole entry): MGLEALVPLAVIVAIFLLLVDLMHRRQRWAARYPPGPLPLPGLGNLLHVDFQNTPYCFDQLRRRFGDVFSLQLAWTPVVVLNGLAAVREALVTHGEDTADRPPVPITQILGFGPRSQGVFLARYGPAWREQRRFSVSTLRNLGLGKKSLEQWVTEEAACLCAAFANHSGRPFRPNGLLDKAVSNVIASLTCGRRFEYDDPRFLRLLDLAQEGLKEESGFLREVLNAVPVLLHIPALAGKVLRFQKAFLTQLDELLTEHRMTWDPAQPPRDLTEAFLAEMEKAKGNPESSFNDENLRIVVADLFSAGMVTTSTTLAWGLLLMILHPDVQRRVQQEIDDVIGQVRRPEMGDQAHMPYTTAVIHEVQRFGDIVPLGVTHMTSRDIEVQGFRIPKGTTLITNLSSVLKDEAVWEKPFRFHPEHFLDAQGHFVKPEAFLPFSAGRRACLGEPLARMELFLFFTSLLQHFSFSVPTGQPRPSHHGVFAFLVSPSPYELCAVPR

Cytochrome P450 2C19 = Cytochrome P450 2C19 (Homo sapiens, UniProt P33261); assay: qHTS Assay for Inhibitors and Substrates of Cytochrome P450 2C19. [Related pubchem assays: 410 ]; assay type: ADME; conditions: read-out: Potency
Sequence of Cytochrome P450 2C19 (P33261 whole entry): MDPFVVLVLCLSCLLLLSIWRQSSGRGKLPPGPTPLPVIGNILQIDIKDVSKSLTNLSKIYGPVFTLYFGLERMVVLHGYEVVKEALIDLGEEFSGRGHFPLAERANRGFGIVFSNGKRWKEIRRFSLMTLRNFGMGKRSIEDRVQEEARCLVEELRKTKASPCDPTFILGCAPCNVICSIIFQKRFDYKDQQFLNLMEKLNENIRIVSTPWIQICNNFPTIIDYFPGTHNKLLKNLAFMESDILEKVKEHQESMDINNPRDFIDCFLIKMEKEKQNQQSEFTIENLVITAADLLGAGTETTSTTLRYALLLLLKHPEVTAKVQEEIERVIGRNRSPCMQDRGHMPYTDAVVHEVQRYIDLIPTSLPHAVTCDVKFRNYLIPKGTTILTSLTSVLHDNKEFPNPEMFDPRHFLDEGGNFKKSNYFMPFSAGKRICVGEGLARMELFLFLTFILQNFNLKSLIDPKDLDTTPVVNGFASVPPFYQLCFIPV

Sequence of Glyceraldehyde-3-phosphate dehydrogenase (P04406 whole entry): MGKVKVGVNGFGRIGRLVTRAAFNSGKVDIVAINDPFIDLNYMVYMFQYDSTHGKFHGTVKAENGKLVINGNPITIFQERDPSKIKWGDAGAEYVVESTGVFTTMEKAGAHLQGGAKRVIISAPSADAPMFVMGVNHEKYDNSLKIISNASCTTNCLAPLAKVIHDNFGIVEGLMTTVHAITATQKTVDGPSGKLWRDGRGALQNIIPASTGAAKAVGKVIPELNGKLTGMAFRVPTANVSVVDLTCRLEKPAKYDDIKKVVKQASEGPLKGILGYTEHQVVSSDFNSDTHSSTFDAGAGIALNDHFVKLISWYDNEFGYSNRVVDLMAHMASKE
Sequence of Acyl-homoserine lactone acylase PvdQ (Q9I194 24-193 limits assumed): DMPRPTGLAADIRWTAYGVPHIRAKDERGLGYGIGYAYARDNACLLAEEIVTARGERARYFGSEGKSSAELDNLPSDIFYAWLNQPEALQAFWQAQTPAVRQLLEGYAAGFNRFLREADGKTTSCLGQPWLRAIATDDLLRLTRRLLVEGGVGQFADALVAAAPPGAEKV
Sequence of Acyl-homoserine lactone acylase PvdQ (Q9I194 217-762 limits assumed): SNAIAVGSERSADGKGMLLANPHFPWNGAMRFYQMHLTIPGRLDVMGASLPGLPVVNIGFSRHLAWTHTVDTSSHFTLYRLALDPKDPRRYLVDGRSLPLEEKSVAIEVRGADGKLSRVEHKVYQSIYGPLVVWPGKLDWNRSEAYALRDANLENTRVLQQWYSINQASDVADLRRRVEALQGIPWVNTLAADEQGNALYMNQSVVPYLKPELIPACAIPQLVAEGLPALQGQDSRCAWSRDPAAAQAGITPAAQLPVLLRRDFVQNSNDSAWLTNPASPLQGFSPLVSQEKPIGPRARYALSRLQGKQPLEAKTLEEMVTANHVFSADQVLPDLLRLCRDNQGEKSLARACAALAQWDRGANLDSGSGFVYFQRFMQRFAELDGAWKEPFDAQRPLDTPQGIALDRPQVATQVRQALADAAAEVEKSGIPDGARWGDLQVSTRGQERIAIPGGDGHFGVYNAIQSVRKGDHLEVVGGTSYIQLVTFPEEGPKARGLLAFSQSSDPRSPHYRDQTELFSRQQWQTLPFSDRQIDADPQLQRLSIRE

SMILES: N#CC(c1ccc(Cl)cc1)c1cccc(Cl)n1 (stereo not given)
- AC50 [1]: 0.5 µM (active)

SMILES: NC(=O)c1cccc2c1NC(C(=O)O)C1CC=CC21 (stereo not given)
- IC50 [2]: > 100 µM (not active)
- IC50 [3]: 10.4 µM (active)
- IC50 [4]: 3 µM (active)
- IC50 [5]: 58.6 µM (active)
- IC50 [6]: 86 µM (active)
- IC50 [7]: 55.5 µM (active)

SMILES: COc1cc(C2C(C#N)=C(N)Oc3cc(N(C)C)ccc32)cc2c1OCO2 (stereo not given)
- AC50 (A-375 [8]): > 35 µM (active)
- IC50 [9]: > 80 µM (inactive)
- EC50 [10]: 0.106 µM (active)
- EC50 [11]: < 0.1 µM (active)
- EC50 (HEK293 [12]): > 8 µM (not active)
- EC50 (BJ): 121 µM (inconclusive)
- EC50 (cells): 0.116 µM (active)
- EC50 (HEK293 [13]): > 8 µM (inactive)
- EC50 [14]: 0.096 µM (active)
- AC50 [15]: 0.601 µM (active)
- AC50 (A-375 [16]): > 35 µM (active)
- EC50 [17]: < 0.1 µM (active)
- EC50 [18]: > 8 µM (not active)
- EC50 (HEK293 [19]): 2.18 µM (active)
- EC50 (HEK293 [20]): > 8 µM (not active)

SMILES: CC[C@H]1C(=O)OC[C@@H]1Cc1cncn1C
- AC50 (Cytochrome P450 2C9): 12.6 µM (inconclusive)

SMILES: COc1ccc2oc(-c3ccccc3)c(OC)c(=O)c2c1 [3,6-DIMETHOXYFLAVONE]
- AC50 (Cytochrome P450 2D6): 39.8 µM (inconclusive)
- AC50 (Cytochrome P450 2C19): 10 µM (inconclusive)
